According to paper PMC4199632, “Exploring the Anti-Cancer Activity of Novel Thiosemicarbazones Generated through the Combination of Retro-Fragments: Dissection of Critical Structure-Activity Relationships” (PLoS ONE, 2014):

Assays:
[1] = test system: Raji Burkitt's lymphoma cells; test: Proliferation assay (MTT, 72 h); format: cell-based; conditions: Homo sapiens, 72 h incubation, mean ±SD (3 experiments)
Method in brief: (§1)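 Cells seeded 24 h before treatment, then exposed at 37 °C for 72 h (SK-N-MC, Raji, HeLa) or 96 h (HCT116, NHDF); final DMSO <0.05%. Read-outs: MTT at 570 nm (SK-N-MC, Raji), crystal violet at 595 nm (HeLa), MTS at 490 nm (HCT116, NHDF); IC50 is 50% absorbance versus untreated control, triplicates repeated three times.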

[2] = test system: SK-N-MC neuroepithelioma cells; test: Proliferation assay (MTT, 72 h); format: cell-based; conditions: Homo sapiens, 72 h incubation, mean ±SD (3 experiments)
Method in brief: as §1

[3] = test system: HCT116 p53+/+ colon cancer cells; test: Proliferation assay (MTS, 96 h); format: cell-based, human; conditions: for IC50: Homo sapiens, HCT-116, 96 h incubation, MTS, mean ±SD (3 experiments); for Therapeutic index NHDF vs. HCT116 p53+/+: NHDF cell IC50 divided by HCT116 p53+/+ IC50
Method in brief: (§2)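 HCT116 p53+/+, HCT116 p53−/− and NHDF cells were seeded 24 h before a 96 h compound exposure at 37 °C, with final DMSO <0.05%. Viability was read by MTS absorbance at 490 nm after 1 h; IC50 was the concentration reducing absorbance to 50% of untreated control.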

[4] = test system: HCT116 p53−/− colon cancer cells; test: Proliferation assay (MTS, 96 h); format: cell-based, human; conditions: for IC50: Homo sapiens, HCT-116, 96 h, 96 h incubation, MTS, mean ±SD (3 experiments); for Therapeutic index NHDF vs. HCT116 p53−/−: NHDF cell IC50 divided by HCT116 p53−/− IC50
Method in brief: as §2

[5] = test system: normal human dermal fibroblast (NHDF) cells; test: Proliferation assay (MTS, 96 h), normal mortal cells; format: cell-based; conditions: 96 h incubation, mean ±SD (3 experiments)
Method in brief: as §2

SK-N-MC cells = test: Mobilization of cellular 59Fe (59Fe efflux); format: cell-based, human; conditions: chelator 25 µM; for 59Fe mobilization (% of cellular 59Fe released): 3 h/37°C, prelabeled SK-N-MC cells, control medium 4±1%; for 59Fe mobilization efficacy compared with controls: SK-N-MC cells
Protocol: The iron transport protein, Tf (Sigma-Aldrich), was labeled with ^59Fe (PerkinElmer Life and Analytical Sciences, Boston, MA) to form ^59Fe2-Tf using standard methods, [7]. Unbound ^59Fe was removed by passage through a Sephadex G25 column and was followed by exhaustive dialysis, [7].
To examine the ability of the novel chelators to mobilize ^59Fe from SK-N-MC cells, ^59Fe efflux experiments were performed using established techniques, [51]. The monolayer of SK-N-MC cells was prelabeled for 3 h at 37°C in MEM containing ^59Fe2-Tf (0.75 µM). Cells were then washed four times with ice-cold PBS and incubated for a further 3 h at 37°C with medium alone (the control) or medium containing the chelator (25 µM). After this incubation, the overlying medium that contained the released ^59Fe was separated from the cells using a Pasteur pipette. Radioactivity was measured in both the cells and supernatant using a γ-scintillation counter (Wallac Wizard 3, Turku, Finland). In these studies, the novel ligands were compared to the previously characterized chelators, DFO and Dp44mT, as their ability to mobilize cellular ^59Fe has been extensively examined in these cells, [12], [17], [18], [50].
Figure 6 Effect of (A) series 1, (B) series 2, (C) series 3, (D) series 4, (E) series 5 and (F) series 6 chelators, relative to the controls DFO and Dp44mT, on ^59Fe mobilization from prelabeled SK-N-MC cells. Cells were incubated for 3 h/37°C with ^59Fe-transferrin (0.75 µM), washed 4 times with ice-cold PBS and then reincubated for 3 h/37°C in the presence or absence of the chelators (25 µM). Release of ^59Fe was then assessed using a γ-scintillation counter. Results are mean ±SD (3 experiments).

[6] = test system: HeLa cervical carcinoma cells; test: Proliferation assay (crystal violet, 72 h); format: cell-based; conditions: Homo sapiens, 72 h incubation, mean ±SD (3 experiments)
Method in brief: as §1

| SMILES | IC50 [1] [nM] | IC50 [2] [nM] | IC50 [3] [nM] | IC50 [4] [nM] | IC50 [6] [nM] | IC50 ([5]; Homo sapiens, NHDF, 96 h) [nM] | 59Fe mobilization (% of cellular 59Fe released) (SK-N-MC cells) | 59Fe mobilization efficacy compared with controls (SK-N-MC cells) | Therapeutic index NHDF vs. HCT116 p53+/+ [3] | Therapeutic index NHDF vs. HCT116 p53−/− [4] | IC50 [5] [nM] |
| --- | --- | --- | --- | --- | --- | --- | --- | --- | --- | --- | --- |
| S=C(N/N=C/c1ccc2ccccc2n1)N1CCN(c2ccccc2)CC1 [2b] | 40 ± 10 | 330 ± 20 | 42 ± 3 | 90 ± 40 | 200 ± 70 |  |  | comparable release of ^59Fe relative to DFO | 0.8 | 0.4 | 33 ± 7 |
| CN(C(=S)N/N=C/c1cnc2ccccc2n1)C1CCCCC1 [5f] | 720 ± 290 | 2040 ± 340 | 1240 ± 450 | 1020 ± 540 | 4090 ± 2070 | 500 ± 210 |  | comparable release of ^59Fe relative to DFO |  |  |  |
| CN(C(=S)N/N=C/c1ccccc1O)C1CCCCC1 [6f] | 690 ± 510 | > 6250 | > 25000 | > 25000 | 10100 ± 3600 | > 25000 |  |  |  |  |  |
| CC(=O)N(O)CCCCCNC(=O)CCC(=O)N(O)CCCCCNC(=O)CCC(=O)N(O)CCCCCN [DFO, desferrioxamine, reference compound] | 4740 ± 1800 | 15100 ± 5200 | > 25000 | > 25000 | 14300 ± 960 | > 25000 | 11±2% |  |  |  |  |
| CN(C)C(=S)NN=C(c1ccccn1)c1ccccn1 [Dp44mT, di-2-pyridylketone 4,4-dimethyl-3-thiosemicarbazone, reference compound] | 7 ± 1 | 12 ± 1 | 2 ± 1 | 5 ± 2 | 40 ± 10 | 15400 ± 5060 | 35±2% |  | 7690 | 3076 |  |

Continued by falling IC50 [1], values first:

| IC50 [1] [nM] | IC50 [2] [nM] | IC50 [3] [nM] | IC50 [4] [nM] | IC50 [6] [nM] | SMILES | IC50 ([5]; Homo sapiens, NHDF, 96 h) [nM] | 59Fe mobilization (% of cellular 59Fe released) (SK-N-MC cells) | 59Fe mobilization efficacy compared with controls (SK-N-MC cells) | Therapeutic index NHDF vs. HCT116 p53+/+ [3] | Therapeutic index NHDF vs. HCT116 p53−/− [4] | IC50 [5] [nM] |
| --- | --- | --- | --- | --- | --- | --- | --- | --- | --- | --- | --- |
| 810 ± 100 | 820 ± 190 | 26 ± 1 | 35 ± 3 | 940 ± 450 | CN(C(=S)N/N=C/c1ccc2ccccc2n1)C1CCCCC1 [2f] | 15 ± 5 |  | comparable release of ^59Fe relative to DFO | 0.6 | 0.4 |  |
| 60 ± 20 | 2540 ± 860 | 1440 ± 690 | 3550 ± 1230 | 430 ± 160 | CCN1CCN(C(=S)N/N=C/c2ccc3ccccc3n2)CC1 [2a] | 9620 ± 1800 |  | comparable ^59Fe mobilization efficacy to that of the control medium |  |  |  |
| 40 ± 20 | 70 ± 50 | 38 ± 3 | 31 ± 3 | 720 ± 70 | S=C(NN=C(c1ccccn1)c1ccccn1)N1CCN(c2cnccn2)CC1 [1e] | 14 ± 3 | 31–39% |  |  |  |  |
